# Patent US20260183209A1, “USE OF SANDALORE FOR IMPROVING THE STRUCTURE OF HAIR” (WELLA GERMANY GMBH, priority 2022, published 2026)
# What was measured:
# keratin 85 (KRT85) = experiment: Keratin 85 expression, fluorescence intensity in the precortical hair matrix of ex vivo human scalp skin sections; assay type: cell-based
# Experimental: (§1) The “cross-section” or “diameter” of hair is determined by the microscopic sectioned, newly formed hair shaft diameter in the keratogenous region (in a distance of around 200-350 μm from the ‘germative matrix’). In an ex vivo human scalp skin culture and treatment, 6 mm skin punches (hairy skin from a healthy donor) were made following the hair growth orientation and maintained in normoxic (37° C., 5% CO2) condition. After 24 h resting (and then keeping) the culture in an Air-Liquid Interphase, two topical treatment were performed (day 1 and 3). Punches were embedded in an optimal cutting temperature compound after 5 days of ex vivo culture and cryosectioned (7 μm sections). The average value is calculated from 5 independent measurements for each hair follicle (HF).
# Expression of keratin 85 (KRT85) is set by fluorescence intensity in the precortical hair matrix with a fluorescence microscope at 20× magnification. Skin sections were co-stained o.n. at 4° C. with a guinea pig anti-KRT85 antibody (Progen, 1:200) followed by DAPI (IUPAC: 4′,6-Diamidino-2-phenylindol) counterstain to visualize the nuclei. The mean KRT85 expression value was calculated from all hair follicles with Image J software within each donor, and fold changes values versus vehicle group were determined.
# [1] = biological target: T1, olfactory receptor OR2AT4 (Homo sapiens, UniProt A6NND4); details: receptor expressed in the epithelium of human hair follicles; cited from earlier work
# T1 sequence (A6NND4 1-320): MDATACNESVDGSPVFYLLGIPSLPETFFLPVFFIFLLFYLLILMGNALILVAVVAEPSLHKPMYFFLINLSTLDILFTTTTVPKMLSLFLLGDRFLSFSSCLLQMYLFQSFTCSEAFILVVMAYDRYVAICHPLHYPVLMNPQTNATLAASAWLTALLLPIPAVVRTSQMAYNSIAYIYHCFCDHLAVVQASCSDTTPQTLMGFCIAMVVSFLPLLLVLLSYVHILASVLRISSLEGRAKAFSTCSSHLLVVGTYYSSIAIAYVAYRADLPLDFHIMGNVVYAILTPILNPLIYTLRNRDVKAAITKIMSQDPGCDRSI
# [2] = tested on: hair follicles of ex vivo human scalp skin culture; experiment: Cross-section / hair shaft diameter in ex vivo human scalp skin culture; assay type: cell-based
# Experimental: as §1
# In an ex vivo human scalp skin culture, punches (hairy skin from a human donors) were twice (day 1 and 3) treated topically, and analysed via crysectioning after 5 days. The average value for each hair follicle (HF) is calculated from 5 independent measurements, and the following table indicates the mean of all average values over the total number of hair follices (#HFs) measured.
smiles,measurement,setting,value
"CC1=CCC(CCC(C)C(C)O)C1(C)C (centres unmarked) [Sandalore, 3-methyl-5-(2,2,3-trimethylcyclopent-3-en-1-yl) pentan-2-ol]","KRT85 expression, change vs vehicle group","keratin 85 (KRT85); fluorescence intensity, anti-KRT85 antibody staining, precortical hair matrix, mean over hair follicles",1.347 fold
same,"KRT85 expression, comparison in words","keratin 85 (KRT85); fold change values, vs vehicle group or vs Sandalore alone",significantly higher
same,effect on olfactory receptor OR2AT4,[1],stimulatory effect
same,effect on hair shaft diameter as compared to vehicle,"[2]; ex vivo human scalp skin culture, vs vehicle",increases the hair shaft diameter significantly
same,hair shaft diameter,"[2]; ex vivo human scalp skin punches, topical treatment day 1 and 3, cryosectioned after 5 days, mean over all hair follicles",51.1 μm
